Experimental data as given in patent US12275731B2, “Azaindole inhibitors of wild-type and mutant forms of LRRK2” (DANA-FARBER CANCER INSTITUTE, INC., priority 2018, dated 2025).

Columns and labels:
Test in all cases: KinomeScan profiling
Type in all cases: binding
MAK = biological target: T1, MAK (Homo sapiens, UniProt P20794); conditions: read-out: % control
T1 sequence (P20794 1-623): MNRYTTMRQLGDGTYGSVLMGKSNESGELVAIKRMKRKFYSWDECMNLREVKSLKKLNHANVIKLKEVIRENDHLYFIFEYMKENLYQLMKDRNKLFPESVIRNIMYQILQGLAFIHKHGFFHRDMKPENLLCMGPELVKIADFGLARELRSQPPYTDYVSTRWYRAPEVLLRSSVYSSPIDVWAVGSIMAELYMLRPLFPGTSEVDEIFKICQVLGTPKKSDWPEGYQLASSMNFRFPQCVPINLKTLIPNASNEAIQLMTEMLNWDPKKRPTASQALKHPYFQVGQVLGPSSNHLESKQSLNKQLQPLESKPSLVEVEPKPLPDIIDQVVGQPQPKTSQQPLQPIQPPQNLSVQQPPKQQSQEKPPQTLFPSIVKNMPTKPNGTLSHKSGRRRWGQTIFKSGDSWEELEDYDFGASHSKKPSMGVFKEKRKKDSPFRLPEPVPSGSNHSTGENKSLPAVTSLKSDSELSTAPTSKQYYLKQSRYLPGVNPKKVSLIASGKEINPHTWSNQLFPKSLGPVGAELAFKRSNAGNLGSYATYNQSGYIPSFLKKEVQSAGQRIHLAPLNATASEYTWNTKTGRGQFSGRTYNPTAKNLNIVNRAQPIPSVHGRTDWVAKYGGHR
How it was run: (§1)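 Selectivity was assessed by binding competition at 1 μM against 468 kinases. Values below 35% of control define an interaction.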

[1] = biological target: T2, TYK2(JH2domain-pseudokinase) (Homo sapiens, UniProt P29597); conditions: read-out: % control
T2 construct: TYK2(JH2domain-pseudokinase)
T2 sequence (P29597 589-875 limits assumed): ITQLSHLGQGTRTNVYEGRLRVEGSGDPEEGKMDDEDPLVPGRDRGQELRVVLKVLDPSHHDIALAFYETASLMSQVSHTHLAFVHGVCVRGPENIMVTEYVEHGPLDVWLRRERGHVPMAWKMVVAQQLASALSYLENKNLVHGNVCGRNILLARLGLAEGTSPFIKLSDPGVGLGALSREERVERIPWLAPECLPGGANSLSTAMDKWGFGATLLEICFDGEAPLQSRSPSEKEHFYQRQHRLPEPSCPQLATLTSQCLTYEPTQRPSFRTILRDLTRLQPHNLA
How it was run: as §1

TAOK3 = biological target: T3, TAOK3 (Homo sapiens, UniProt Q9H2K8); conditions: TAOK3, 1 μM; read-out: % control
T3 sequence (Q9H2K8 1-898): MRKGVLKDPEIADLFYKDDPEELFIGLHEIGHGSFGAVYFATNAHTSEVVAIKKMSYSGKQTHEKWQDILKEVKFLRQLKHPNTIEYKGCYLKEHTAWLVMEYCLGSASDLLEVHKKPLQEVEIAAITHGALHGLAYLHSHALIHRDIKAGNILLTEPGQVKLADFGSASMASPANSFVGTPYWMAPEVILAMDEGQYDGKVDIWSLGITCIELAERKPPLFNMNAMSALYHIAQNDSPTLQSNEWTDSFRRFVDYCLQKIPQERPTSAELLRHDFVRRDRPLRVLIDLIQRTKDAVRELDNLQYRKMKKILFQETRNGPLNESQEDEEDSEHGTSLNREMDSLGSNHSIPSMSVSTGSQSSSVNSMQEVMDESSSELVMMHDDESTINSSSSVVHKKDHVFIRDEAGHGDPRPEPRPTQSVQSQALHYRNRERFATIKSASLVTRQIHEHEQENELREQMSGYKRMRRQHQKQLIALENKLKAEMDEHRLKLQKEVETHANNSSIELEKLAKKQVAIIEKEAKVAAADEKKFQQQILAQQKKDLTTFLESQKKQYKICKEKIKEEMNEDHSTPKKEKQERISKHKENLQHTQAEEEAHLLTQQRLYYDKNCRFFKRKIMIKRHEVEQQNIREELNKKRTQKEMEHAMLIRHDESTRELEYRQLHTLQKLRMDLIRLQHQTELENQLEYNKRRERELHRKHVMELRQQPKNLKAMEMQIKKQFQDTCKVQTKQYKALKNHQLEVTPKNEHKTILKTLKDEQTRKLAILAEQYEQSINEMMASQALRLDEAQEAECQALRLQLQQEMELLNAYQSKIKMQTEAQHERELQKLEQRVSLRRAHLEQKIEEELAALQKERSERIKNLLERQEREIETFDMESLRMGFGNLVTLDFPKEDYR
How it was run: as §1

TXK = biological target: T4, TXK (Homo sapiens, UniProt P42681); conditions: read-out: % control
T4 sequence (P42681 1-527): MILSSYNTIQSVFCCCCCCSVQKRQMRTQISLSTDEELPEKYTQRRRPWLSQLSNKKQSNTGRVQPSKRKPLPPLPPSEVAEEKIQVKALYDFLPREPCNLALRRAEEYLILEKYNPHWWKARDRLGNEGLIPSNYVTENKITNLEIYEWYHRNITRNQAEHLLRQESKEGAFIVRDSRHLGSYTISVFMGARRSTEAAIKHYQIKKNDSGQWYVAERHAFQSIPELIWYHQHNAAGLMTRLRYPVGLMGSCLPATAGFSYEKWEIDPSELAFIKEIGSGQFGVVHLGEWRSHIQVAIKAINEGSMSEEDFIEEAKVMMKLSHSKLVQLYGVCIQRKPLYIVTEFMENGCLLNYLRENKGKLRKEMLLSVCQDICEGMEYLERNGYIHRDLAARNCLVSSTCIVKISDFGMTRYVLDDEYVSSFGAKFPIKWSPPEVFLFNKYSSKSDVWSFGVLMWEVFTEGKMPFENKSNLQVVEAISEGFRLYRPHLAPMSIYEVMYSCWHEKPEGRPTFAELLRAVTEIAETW
How it was run: as §1

NIM1 = NIM1 (Homo sapiens, UniProt Q8IY84); conditions: NIM1, 1 μM; read-out: % control
Chain of NIM1 (Q8IY84 whole entry): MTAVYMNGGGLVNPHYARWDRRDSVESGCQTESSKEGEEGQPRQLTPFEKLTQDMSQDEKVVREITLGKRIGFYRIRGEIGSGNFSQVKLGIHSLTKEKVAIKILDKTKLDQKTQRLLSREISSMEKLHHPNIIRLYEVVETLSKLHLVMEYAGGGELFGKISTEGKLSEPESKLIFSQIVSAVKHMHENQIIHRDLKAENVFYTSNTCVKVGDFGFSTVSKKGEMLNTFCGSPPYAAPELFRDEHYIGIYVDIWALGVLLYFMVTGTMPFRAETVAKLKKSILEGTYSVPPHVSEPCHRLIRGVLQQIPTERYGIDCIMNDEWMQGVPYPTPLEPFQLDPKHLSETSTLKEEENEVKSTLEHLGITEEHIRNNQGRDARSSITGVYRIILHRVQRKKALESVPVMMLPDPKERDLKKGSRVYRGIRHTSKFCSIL
How it was run: as §1

DRAK2 = biological target: T5, DRAK2 (Homo sapiens, UniProt O94768); conditions: DRAK2, 1 μM; read-out: % control
T5 sequence (O94768 1-372): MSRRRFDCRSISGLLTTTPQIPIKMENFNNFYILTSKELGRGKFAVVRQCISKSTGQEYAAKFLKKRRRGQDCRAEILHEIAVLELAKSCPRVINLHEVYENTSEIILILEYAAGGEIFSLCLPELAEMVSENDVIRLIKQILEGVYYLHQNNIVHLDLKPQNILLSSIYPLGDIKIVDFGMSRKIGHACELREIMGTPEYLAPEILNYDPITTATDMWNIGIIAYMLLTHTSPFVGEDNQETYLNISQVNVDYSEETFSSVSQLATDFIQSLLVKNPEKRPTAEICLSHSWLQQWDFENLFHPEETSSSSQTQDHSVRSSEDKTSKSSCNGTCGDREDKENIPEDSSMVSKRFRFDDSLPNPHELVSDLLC
How it was run: as §1

RAF1 = RAF1 (Homo sapiens, UniProt P04049); conditions: RAF1, 1 μM; read-out: % control
Chain of RAF1 (P04049 whole entry): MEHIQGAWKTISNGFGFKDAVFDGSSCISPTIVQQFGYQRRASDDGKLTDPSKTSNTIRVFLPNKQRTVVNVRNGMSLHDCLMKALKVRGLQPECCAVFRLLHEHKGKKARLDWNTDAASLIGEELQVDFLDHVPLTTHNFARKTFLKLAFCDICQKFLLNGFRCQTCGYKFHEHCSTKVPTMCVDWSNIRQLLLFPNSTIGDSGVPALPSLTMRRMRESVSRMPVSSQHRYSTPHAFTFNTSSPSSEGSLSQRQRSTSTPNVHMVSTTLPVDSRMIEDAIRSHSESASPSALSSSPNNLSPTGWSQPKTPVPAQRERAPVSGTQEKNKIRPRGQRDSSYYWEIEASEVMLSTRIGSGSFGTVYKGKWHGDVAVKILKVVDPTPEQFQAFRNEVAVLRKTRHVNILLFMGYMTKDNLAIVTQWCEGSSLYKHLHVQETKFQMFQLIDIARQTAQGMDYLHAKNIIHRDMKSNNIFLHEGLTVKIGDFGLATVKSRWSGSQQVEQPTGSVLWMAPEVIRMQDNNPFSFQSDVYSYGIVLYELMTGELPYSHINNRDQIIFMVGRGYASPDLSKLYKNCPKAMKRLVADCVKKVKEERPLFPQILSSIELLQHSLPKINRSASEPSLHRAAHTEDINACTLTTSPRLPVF
How it was run: as §1

Structure (SMILES) | remaining binding at 1 µM (MAK) | remaining binding at 1 µM [1] | remaining binding at 1 µM (TAOK3) | remaining binding at 1 µM (TXK) | remaining binding at 1 µM (NIM1) | remaining binding at 1 µM (DRAK2) | remaining binding at 1 µM (RAF1)
CNc1c(-c2ccc(C(=O)N3CCC(N4CCOCC4)CC3)cc2)cnc2[nH]cc(Cl)c12 [Compound 96, (4-(3-chloro-4-(methylamino)-1H-pyrrolo[2,3-b]pyridin-5-yl)phenyl)(4-morpholinopiperidin-1-yl)methanone] | 97% | 89% | 91% | 81% | 50% | 19% | 100%
O=C(c1ccc(-c2cnc3[nH]cc(Cl)c3c2NC2CCCC2)cc1)N1CCC(N2CCOCC2)CC1 [Compound 101, (4-(3-chloro-4-(cyclopentylamino)-1H-pyrrolo[2,3-b]pyridin-5-yl)phenyl)(4-morpholinopiperidin-1-yl)methanone] | 87% | 100% | 88% | 84% | 99% | 92% | 91%
CNc1c(-c2cnn([C@H]3CCN(C(C)=O)C[C@@H]3F)c2)cnc2[nH]cc(Cl)c12 [Compound 77, 1-((3S,4S)-4-(4-(3-chloro-4-(methylamino)-1H-pyrrolo[2,3-b]pyridin-5-yl)-1H-pyrazol-1-yl)-3-fluoropiperidin-1-yl)ethan-1-one] | 100% | 84% | 95% | 81% | 69% | 47% | 91%
